According to ChEMBL document CHEMBL1201862, “PubChem BioAssay data set” (2004):
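The compound was tested at five concentrations on cells cultured in 96-well plates, with a 48-hour exposure period. At the GI50, growth is halved.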 Active and inactive are the calls of the source. Rule as the data show it: active = GI50 up to about 1.1 µM and inactive = higher.

Assays:
Test in all cases: NCI tumour cell line growth inhibition, 48 h
786-0 = test system: 786-0
A498 = test system: A498
A549 = test system: A549
ACHN = test system: ACHN
CAKI-1 = test system: CAKI-1
CCRF-CEM = test system: CCRF-CEM
COLO 205 = test system: COLO 205
DLD-1 = test system: DLD-1
DMS-114 = test system: DMS-114
DMS-273 = test system: DMS-273
EKVX = test system: EKVX
HCC 2998 = test system: HCC 2998
HCT-116 = test system: HCT-116
HCT-15 = test system: HCT-15
HL-60 = test system: HL-60
HOP-18 = test system: HOP-18
HOP-62 = test system: HOP-62
HT-29 = test system: HT-29
IGROV-1 = test system: IGROV-1
K562 = test system: K562
KM-20L2 = test system: KM-20L2
KM12 = test system: KM12
LOX IMVI = test system: LOX IMVI
LXFL 529 = test system: LXFL 529
M14 = test system: M14
M19-MEL = test system: M19-MEL
MOLT-4 = test system: MOLT-4
Malme-3M = test system: Malme-3M
NCI-H226 = test system: NCI-H226
NCI-H23 = test system: NCI-H23
NCI-H460 = test system: NCI-H460
NCI-H522 = test system: NCI-H522
OVCAR-3 = test system: OVCAR-3
OVCAR-4 = test system: OVCAR-4
OVCAR-8 = test system: OVCAR-8
RPMI-8226 = test system: RPMI-8226
RXF 393 = test system: RXF 393
RXF 631 = test system: RXF 631
SF-268 = test system: SF-268
SF-295 = test system: SF-295
SF-539 = test system: SF-539
SK-MEL-28 = test system: SK-MEL-28
SK-MEL-2 = test system: SK-MEL-2
SK-MEL-5 = test system: SK-MEL-5
SK-OV-3 = test system: SK-OV-3
SN12C = test system: SN12C
SNB-19 = test system: SNB-19
SNB-75 = test system: SNB-75
SNB-78 = test system: SNB-78
SW-620 = test system: SW-620
TK-10 = test system: TK-10
U-251 = test system: U-251
UACC-257 = test system: UACC-257
UACC-62 = test system: UACC-62
UO-31 = test system: UO-31
XF498 = test system: XF498
HOP-92 = test system: HOP-92
OVCAR-5 = test system: OVCAR-5

N#CC1=C(O)NC(O)=C(C#N)C1c1ccc(C2C(C#N)=C(O)NC(O)=C2C#N)cc1
GI50 (786-0): > 100 µM (inactive) | GI50 (A498): > 100 µM (inactive) | GI50 (A549): 58.9 µM (inactive) | GI50 (ACHN): > 100 µM (inactive) | GI50 (CAKI-1): > 100 µM (inactive) | GI50 (CCRF-CEM): 45.3 µM (inactive) | GI50 (COLO 205): 26.8 µM (inactive) | GI50 (DLD-1): 55.7 µM (inactive) | GI50 (DMS-114): > 100 µM (inactive) | GI50 (DMS-273): > 100 µM (inactive) | GI50 (EKVX): > 100 µM (inactive) | GI50 (HCC 2998): > 100 µM (inactive) | GI50 (HCT-116): > 100 µM (inactive) | GI50 (HCT-15): 50.8 µM | GI50 (HL-60): 28.3 µM (inactive) | GI50 (HOP-18): > 100 µM (inactive) | GI50 (HOP-62): > 100 µM (inactive) | GI50 (HT-29): > 100 µM (inactive) | GI50 (IGROV-1): > 100 µM (inactive) | GI50 (K562): 53.2 µM (inactive) | GI50 (KM-20L2): > 100 µM (inactive) | GI50 (KM12): > 100 µM (inactive) | GI50 (LOX IMVI): 35.2 µM (inactive) | GI50 (LXFL 529): > 100 µM (inactive) | GI50 (M14): > 100 µM (inactive) | GI50 (M19-MEL): 67.8 µM (inactive) | GI50 (MOLT-4): 94.6 µM (inactive) | GI50 (Malme-3M): > 100 µM (inactive) | GI50 (NCI-H226): > 100 µM (inactive) | GI50 (NCI-H23): > 100 µM (inactive) | GI50 (NCI-H460): 46.5 µM (inactive) | GI50 (NCI-H522): 19.7 µM (inactive) | GI50 (OVCAR-3): > 100 µM (inactive) | GI50 (OVCAR-4): > 100 µM (inactive) | GI50 (OVCAR-8): > 100 µM (inactive) | GI50 (RPMI-8226): > 100 µM (inactive) | GI50 (RXF 393): > 100 µM (inactive) | GI50 (RXF 631): > 100 µM (inactive) | GI50 (SF-268): > 100 µM (inactive) | GI50 (SF-295): > 100 µM (inactive) | GI50 (SF-539): > 100 µM (inactive) | GI50 (SK-MEL-28): > 100 µM (inactive) | GI50 (SK-MEL-2): > 100 µM (inactive) | GI50 (SK-MEL-5): > 100 µM (inactive) | GI50 (SK-OV-3): > 100 µM (inactive) | GI50 (SN12C): 46.5 µM (inactive) | GI50 (SNB-19): > 100 µM (inactive) | GI50 (SNB-75): > 100 µM (inactive) | GI50 (SNB-78): > 100 µM (inactive) | GI50 (SW-620): > 100 µM (inactive) | GI50 (TK-10): > 100 µM (inactive) | GI50 (U-251): > 100 µM (inactive) | GI50 (UACC-257): > 100 µM (inactive) | GI50 (UACC-62): > 100 µM (inactive) | GI50 (UO-31): > 100 µM (inactive) | GI50 (XF498): > 100 µM (inactive)

N#CCCN(CCC#N)c1ccc(C(=O)NN)cc1
GI50 (786-0): > 100 µM (inactive) | GI50 (A498): > 100 µM (inactive) | GI50 (A549): > 100 µM (inactive) | GI50 (ACHN): > 100 µM (inactive) | GI50 (CAKI-1): > 100 µM (inactive) | GI50 (CCRF-CEM): > 100 µM (inactive) | GI50 (COLO 205): > 100 µM (inactive) | GI50 (DLD-1): > 100 µM (inactive) | GI50 (DMS-114): > 100 µM (inactive) | GI50 (DMS-273): > 100 µM (inactive) | GI50 (EKVX): > 100 µM (inactive) | GI50 (HCC 2998): > 100 µM (inactive) | GI50 (HCT-116): > 100 µM (inactive) | GI50 (HCT-15): > 100 µM | GI50 (HL-60): > 100 µM (inactive) | GI50 (HOP-18): > 100 µM (inactive) | GI50 (HOP-62): > 100 µM (inactive) | GI50 (HOP-92): > 100 µM (inactive) | GI50 (HT-29): > 100 µM (inactive) | GI50 (IGROV-1): > 100 µM (inactive) | GI50 (K562): > 100 µM (inactive) | GI50 (KM-20L2): > 100 µM (inactive) | GI50 (KM12): > 100 µM (inactive) | GI50 (LOX IMVI): > 100 µM (inactive) | GI50 (LXFL 529): > 100 µM (inactive) | GI50 (M14): > 100 µM (inactive) | GI50 (M19-MEL): > 100 µM (inactive) | GI50 (MOLT-4): > 100 µM (inactive) | GI50 (Malme-3M): > 100 µM (inactive) | GI50 (NCI-H226): > 100 µM (inactive) | GI50 (NCI-H23): > 100 µM (inactive) | GI50 (NCI-H460): > 100 µM (inactive) | GI50 (NCI-H522): > 100 µM (inactive) | GI50 (OVCAR-3): > 100 µM (inactive) | GI50 (OVCAR-4): > 100 µM (inactive) | GI50 (OVCAR-5): > 100 µM (inactive) | GI50 (OVCAR-8): > 100 µM (inactive) | GI50 (RPMI-8226): > 100 µM (inactive) | GI50 (RXF 393): > 100 µM (inactive) | GI50 (RXF 631): > 100 µM (inactive) | GI50 (SF-268): > 100 µM (inactive) | GI50 (SF-295): > 100 µM (inactive) | GI50 (SF-539): > 100 µM (inactive) | GI50 (SK-MEL-28): > 100 µM (inactive) | GI50 (SK-MEL-5): > 100 µM (inactive) | GI50 (SK-OV-3): > 100 µM (inactive) | GI50 (SN12C): > 100 µM (inactive) | GI50 (SNB-19): > 100 µM (inactive) | GI50 (SNB-75): > 100 µM (inactive) | GI50 (SNB-78): > 100 µM (inactive) | GI50 (SW-620): > 100 µM (inactive) | GI50 (TK-10): > 100 µM (inactive) | GI50 (U-251): > 100 µM (inactive) | GI50 (UACC-257): > 100 µM (inactive) | GI50 (UACC-62): > 100 µM (inactive) | GI50 (UO-31): > 100 µM (inactive) | GI50 (XF498): > 100 µM (inactive)
